{"source": "patent US20020160413A1", "about": "“COMBINATORIAL LIBRARIES” (priority 1998, published 2002)", "assay_type_in_all_cases": "binding", "key": {"oligo (dA•dT)": {"test_system": "oligo (dA•dT)", "experiment": "Affinity selection of amine/salicylaldehyde/Zn2+ library on DNA-cellulose resin, HPLC of derivatized amines in initial elution", "settings": "82 μM salicylaldehyde, 164 μM each amine", "description": "For each sample, 15 mg oligo(dT) cellulose was weighed into a 2 ml Bio-Rad BIOSPIN™ polypropylene chromatography column equipped with a glass frit. The resin was then taken up in 750 μl HEPES buffer (10 mM HEPES, 100 mM KC1, pH 6.8). 0.5 A(260) units of oligo(dA) were then added in 50 μl H2O and allowed to incubate on the resin for one hour at ambient temperature prior to the addition of library samples. During this pre-incubation period, as well as throughout the remainder of the experiments, gentle agitation was provided by rotating the samples on a Barnstead-Thermolyne LAB QUAKE™ rotary shaker. In a similar manner, 15 mg of unfunctionalized cellulose for each control experiment was allowed to soak in 800 μl HEPES buffer at ambient temperature for one hour prior to the addition of library samples.\nAs one skilled in the are will note, the complexes shown above represent only a subset of the complexes that would be present in this equilibrium. Samples were prepared in triplicate from stock solutions as indicated in Table 1 to provide a total volume of 450 μl. An identical set of samples was prepared for control experiments. In each case, libraries were allowed to incubate at ambient temperature for one hour prior to addition to the DNA-cellulose or control cellulose resin. Additional sets of library samples were prepared according to lines C and D of Table 1 for control experiments conducted in the absence of DNA-cellulose or unfunctionalized cellulose resin.\nFollowing the pre-incubation period, each sample was added to either a DNA-cellulose or unfunctionalized cellulose column as appropriate. These samples were then allowed to incubate on the resin with gentle agitation at ambient temperature for six hours. Solutions were then eluted from the resin, frozen, and lyophilized prior to derivatization and analysis as described below. […]\nIn order to separate and identify as many constituents of each sample as possible, a minimum of two HPLC elutions were performed for each sample. […] Elutions were monitored at 230 nm. […]"}, "[1]": {"test_system": "double-stranded oligo(dA)-oligo(dT)", "experiment": "Affinity selection and amplification of salicylaldimine library on double-stranded DNA affinity column", "settings": "for retention on the affinity column in the presence of zinc: 0.5 mM each of 8-13, with 26 MM ZnCl2, normalized to values in the absence of zinc, two-hour incubation", "excerpt": "A serious potential problem with the selection and amplification of a single compound from an equilibrating mixture of complexes is that of identifying the desired high-affinity species. First, if the selection is not complete for a single compound, the separation and identification of a potentially large number of complexes presents a significant analytical challenge. Furthermore, since reequilibration of complexes can occur once the affinity resin is removed, it might be expected that binding information would be lost. […] Application of this technique to the eluent from an affinity column would permit deconvolution of the library to provide information about the identity of binding complexes.\nWith a series of monomers, verification of self-assembly in aqueous solutions, and a separation method in hand, the experimental tools were in place to conduct an affinity selection and amplification experiment. A standard solution of 0.5 mM 8-13 (total concentration 3 mM in “monomer”) was prepared in 10 mM Tris•HCl, 100 mM KCl, 1% DMSO, pH 7.5. To determine the effect of zinc on the observed selection, samples were prepared either with or without 26 MM ZnCl2. Samples were allowed to incubate for one hour to allow an equilibrium mixture of complexes to form, and the latter were then individually added to affinity columns prepared from 30 mg of commercial poly(dT)-cellulose resin (Pharmacia Biotech) preincubated with one A260 unit (approximately 7 nmol) of oligo (dA)12-18(Oligo (dA)12-18 as obtained from Pharmacia Biotech is a mixture of homopolymeric, single-stranded DNA of length 12 to 18) in 10 mM Tris•HCl, 100 mM KCl, pH 7.5 for formation of double-stranded DNA (giving an approximate, average complex:base pair ratio of 85:1). Following a two-hour incubation of the libraries on the resin, solutions were eluted, lyophilized, and derivatized as described above."}, "[2]": {"test_system": "single-stranded oligo(dT)-cellulose", "experiment": "Control selection of salicylaldimine library on single-stranded oligo(dT)-cellulose", "settings": "conditions identical to double-stranded experiment"}, "[3]": {"experiment": "Control selection of salicylaldimine library on cellulose alone", "settings": "conditions identical to double-stranded experiment"}, "[4]": {"settings": "41 μM Zn2+, normalized to zinc-free samples"}}}
{"smiles": "CN1CCCC1CCN", "note": "(stereo not drawn) [Amine 4, N-methyl 2-aminoethyl pyrrolidine]", "values": [{"measurement": "amount retained on the column at higher Zn2+ versus 41 μM Zn2+", "setting": "oligo (dA•dT); 82 μM Zn2+", "result": "significant reduction in the amount of 4 retained"}, {"measurement": "reduction in the amount of derivatized amine in initial elution (in words)", "setting": "oligo (dA•dT); [4]", "result": "significant reduction"}]}
{"smiles": "NCCCO", "note": "[Amine 6, 3-hydroxypropylamine]", "values": [{"measurement": "reduction in the amount of derivatized amine in initial elution", "setting": "oligo (dA•dT); [4]", "result": "> 50", "unit": "%"}]}
{"smiles": "CN1CCCC1CC/N=C/c1ccccc1O", "note": "(stereo not drawn) [monomer 9]", "values": [{"measurement": "retention on the affinity column in the presence of zinc", "setting": "[1]", "result": "most strongly retained"}, {"measurement": "retention on oligo(dT)-cellulose, presence versus absence of zinc", "setting": "[2]", "result": "to the same extent"}, {"measurement": "retention on cellulose, presence versus absence of zinc", "setting": "[3]", "result": "to the same extent"}]}
{"smiles": "Oc1ccccc1/C=N/CC1CCCO1", "note": "(stereo not drawn) [monomer 11]", "values": [{"measurement": "retention on the affinity column in the presence of zinc", "setting": "[1]", "result": "most strongly retained"}, {"measurement": "retention on cellulose, presence versus absence of zinc", "setting": "[3]", "result": "more strongly retained"}]}
{"smiles": "Oc1ccccc1/C=N/CCc1ccccn1", "note": "[monomer 12]", "values": [{"measurement": "derivatized monomer eluted in the presence of zinc versus absence of zinc", "setting": "[1]; 0.5 mM each of 8-13, with or without 26 MM ZnCl2", "result": "twice as much"}]}
